In experiment [1] the target is T1, interaction of the PAS B domains of HIF-2α and HIF-1β (Homo sapiens, UniProt Q99814).
T1 construct: His6Gb1-TEV-GEFKGL-HIF2α (240-350aa)-G
In words: Alphascreen protein protein interaction assay. Type of experiment: biochemical. On the procedure:
Alphascreen Protein Protein Interaction Assay:
For the assessment of functional disruption of the interaction of the PAS B domains of HIF-2α and HIF-1β an AlphaScreen assay was set-up. The assay was performed in 384 well light gray Perkin Elmer microtiter plates in a total volume of 7 μl. […] The detection of the protein protein interaction was performed by adding AlphaLISA® Anti-FLAG Acceptor beads (fc 20 μg/ml) and AlphaScreen® Nickel Chelate Donor beads (fc 9 μg/ml) (both Perkin Elmer) and the reaction was incubated for 240 min at 23° C. in the dark. If donor and acceptor beads get in close proximity to each other caused by interaction of HIF2alpha PAS B with HIF-1ß PAS B domain it results in a luminescence signal at 615 nm after excitation at 680 nm. The PPI disruption activity of a compound was calculated directly from the loss in Alphascreen signal. The AlphaScreen signal was measured with an Envision multimode reader (Perkin Elmer LAS Germany GmbH). The control value used was the inhibitor-free reaction. The pharmacological zero value used was determined in the absence of HIF-11. The inhibitory values (IC50) were calculated using Assay analyser from GeneData.

In experiment [2] the test system is HIF2α-HIF1β activity in 786-O HRE-luc2P cells. Kind of experiment: Cellular mechanistic assay: 786-O HRE-luc2P reporter assay. Type of experiment: cell-based. The note with it: Homo sapiens, 786-0, 48 h, read-out: HRE-luc2P reporter assay IC50. On the procedure:
This reporter assay was designed to monitor binding of the HIF2α-HIF1β complex to specific DNA fragment called hypoxia response element (HRE) in physiologically relevant cell line. […] HRE is present in promoters of various genes regulated by hypoxia inducible factors. […] As a result, this reporter assay allows monitoring of HIF2α-HIF1β activity by determining the activity of produced luciferase. Cell culture is performed in RPMI media supplemented with 10% FBS, Sodium Pyruvate, Penicillin/Streptomycin, Glutamine, 200 μg/ml Hygromycin Gold.
The assay was performed in 384 well white, opaque microtiterplate with transparent bottom (Greiner Bio-one, Frickenhausen). […] 50 μl of cell suspension (2000 cells) per well were dispensed in microtiter plates and incubated over night at 37° C. in a 5% CO2 incubator. Compounds were added with Labcyte Echo dispenser (fc 0.2% DMSO, 9 concentrations dilution raw starting at 10 μM). Plates were incubated for 48 h at 37° C. in a 5% CO2 incubator. After this 45 μl of pre-warmed ONE-Glo™ EX Reagent were added per well. Plates were placed on an orbital shaker at 1200 rpm for 3 minutes. Plates were sealed and luminescence was measured a Tecan Spark 20M microplate reader (end-point measurement with 0.1 second reading time). Values were normalized to DMSO ctrl and wells without cells (only medium ctrl). Decrease in luminescence directly correlates with inhibition of HIF2α activity. IC50 values and % effect values were calculated by GraphPad Prism.

A further experiment addresses T2, HIF2a (240-350)-G (Homo sapiens, UniProt Q99814).
T2 construct: The protein, HIF2a (240-350)-G, was prepared by recombinant overexpression; made in house
In words: ITC. The experiment is classed as binding. On the procedure: ITC measurements were performed with a VP-ITC microcalorimeter from MicroCal/Malvern (UK). For all titration experiments the protein and the respective compounds were formulated in 30 mM HEPES buffer pH 7.5, 150 mM NaCl and 5 mM ß-mercaptoethanol. The protein, HIF2a (240-350)-G, was prepared by recombinant overexpression and multistep chromatography purification. Compounds were used from concentrated DMSO stock solutions. The final protein concentration in the injection syringe was 100 μM. Ligand stock solutions of 10 mM in DMSO were diluted to 10 μM concentrations with buffer and loaded into the sample cell. All buffers were adjusted to a final concentration of 1% (v/v) DMSO. Both, the titrate and titrant solutions were degassed prior to loading the calorimeter cell and injection syringe. […] The integrated heat data were fit with a one-site binding model to determine the apparent values for affinity, enthalpy and stoichiometry of binding.

pIC50, pKd: −log10 of the molar value. Where only a bound is given, the exact number is not on record here.

T2 sequence (Q99814 240-350): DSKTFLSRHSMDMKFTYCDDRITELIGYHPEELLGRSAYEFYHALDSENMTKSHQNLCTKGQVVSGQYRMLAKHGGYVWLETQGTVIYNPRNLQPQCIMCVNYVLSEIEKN
T1 sequence (Q99814 240-350): as above

On to `Cn1nc(-c2sc(S(C)(=O)=O)c3c2CCC(F)(F)[C@H]3O)cc1C#N` [Example 54a, 3-[(4S)-5,5-difluoro-4-hydroxy-3-methanesulfonyl-4,5,6,7-tetrahydro-2-benzothiophen-1-yl]-1-methyl-1H-pyrazole-5-carbonitrile], for which the pIC50 in experiment [1] and in experiment [2] was below 6.00 throughout.
Consider `Cn1nccc1-c1sc(S(C)(=O)=O)c2c1CC(F)(F)[C@H]2O` [Example 47a, (4S)-5,5-difluoro-3-methanesulfonyl-1-(1-methyl-1H-pyrazol-5-yl)-4H,5H,6H-cyclopenta[c]thiophen-4-ol], for which the pIC50 in experiment [1] and in experiment [2] was below 6.00 each time.
Consider `Cn1nc(C(F)(F)F)cc1-c1sc(S(C)(=O)=O)c2c1CC(F)(F)[C@H]2O` [Example 48a, (4S)-5,5-difluoro-3-methanesulfonyl-1-[1-methyl-3-(trifluoromethyl)-1H-pyrazol-5-yl]-4H,5H,6H-cyclopenta[c]thiophen-4-ol], for which the pIC50 in experiment [1] and in experiment [2] was below 6.00 in each case.
For `CS(=O)(=O)c1sc(-c2ccccc2)c2c1[C@H](O)CCC2` [Example 36a, (4R)-3-methanesulfonyl-1-phenyl-4,5,6,7-tetrahydro-2-benzothiophen-4-ol], the pIC50 in experiment [1] and in experiment [2] was below 6.00 each time.
With `Cn1nc(C(F)(F)F)cc1-c1sc(S(C)(=O)=O)c2c1CCC(F)(F)[C@H]2O` [Example 46a, (4S)-5,5-difluoro-3-methanesulfonyl-1-[1-methyl-3-(trifluoromethyl)-1H-pyrazol-5-yl]-4,5,6,7-tetrahydro-2-benzothiophen-4-ol], the pIC50 in experiment [1] and in experiment [2] was below 6.00 in each case.
Consider `CS(=O)(=O)c1sc(-c2cc(F)nc(Cl)c2)c2c1[C@H](O)C(F)(F)CC2` [Example 63a, (4S)-1-(2-chloro-6-fluoropyridin-4-yl)-5,5-difluoro-3-methanesulfonyl-4,5,6,7-tetrahydro-2-benzothiophen-4-ol], for which the pIC50 in experiment [1] was above 7.30; in experiment [2], below 6.00. On HIF2a (240-350)-G, the pKd is 6.00 to 7.30.
In the case of `CS(=O)(=O)c1sc(-c2cncc(Cl)c2)c2c1[C@H](O)C(F)(F)CC2` [Example 56a, (4S)-1-(5-chloropyridin-3-yl)-5,5-difluoro-3-methanesulfonyl-4,5,6,7-tetrahydro-2-benzothiophen-4-ol], the negative-log IC50 (pIC50) is 6.00 to 7.30 in experiment [1] and below 6.00 in experiment [2].
`Cc1cc(-c2sc(S(C)(=O)=O)c3c2CCC(F)(F)[C@H]3O)n(C)n1` [Example 50a, (4S)-1-(1,3-dimethyl-1H-pyrazol-5-yl)-5,5-difluoro-3-methanesulfonyl-4,5,6,7-tetrahydro-2-benzothiophen-4-ol] showed a pIC50 in experiment [1] below 6.00.
For `CS(=O)(=O)c1sc(-c2cnc(Cl)c(F)c2)c2c1[C@H](O)C(F)(F)CC2` [Example 61a, (4S)-1-(6-chloro-5-fluoropyridin-3-yl)-5,5-difluoro-3-methanesulfonyl-4,5,6,7-tetrahydro-2-benzothiophen-4-ol], the pIC50 in experiment [1] was 6.00 to 7.30; in experiment [2], below 6.00.
In experiment [1], `Cn1nc(C#N)cc1-c1sc(S(C)(=O)=O)c2c1CCC(F)(F)[C@H]2O` [Example 51a, 5-[(4S)-5,5-difluoro-4-hydroxy-3-methanesulfonyl-4,5,6,7-tetrahydro-2-benzothiophen-1-yl]-1-methyl-1H-pyrazole-3-carbonitrile] showed a pIC50 below 6.00.
Consider `Cn1cc(-c2sc(S(C)(=O)=O)c3c2CCC(F)(F)[C@H]3O)cn1` [Example 40a, (4S)-5,5-difluoro-3-methanesulfonyl-1-(1-methyl-1H-pyrazol-4-yl)-4,5,6,7-tetrahydro-2-benzothiophen-4-ol], for which the negative-log IC50 (pIC50) in experiment [1] is below 6.00.
Still for that read-out and setting: the value for `Cn1cc(-c2sc(S(C)(=O)=O)c3c2CC(F)(F)[C@H]3O)cn1` [Example 35a, (4S)-5,5-difluoro-3-methanesulfonyl-1-(1-methyl-1H-pyrazol-4-yl)-4H,5H,6H-cyclopenta[c]thiophen-4-ol] was below 6.00; that for `CS(=O)(=O)c1sc(-c2cncc(C#N)c2)c2c1[C@H](O)C(F)(F)CC2` [Example 59a, 5-[(4S)-5,5-difluoro-4-hydroxy-3-methanesulfonyl-4,5,6,7-tetrahydro-2-benzothiophen-1-yl]pyridine-3-carbonitrile] was below 6.00.
In the case of `CS(=O)(=O)c1sc(-c2ccccc2)c2c1[C@H](O)C(F)(F)C2` [Example 25a, (4S)-5,5-difluoro-3-methanesulfonyl-1-phenyl-4H,6H-cyclopenta[c]thiophen-4-ol], the negative-log IC50 (pIC50) in experiment [1] is below 6.00. The compound further had a pKd on HIF2a (240-350)-G below 6.00.
Regarding `Cc1nn(C)cc1-c1sc(S(C)(=O)=O)c2c1CCC(F)(F)[C@H]2O` [Example 39a, (4S)-1-(1,3-dimethyl-1H-pyrazol-4-yI)-5,5-difluoro-3-methanesulfonyl-4,5,6,7-tetrahydro-2-benzothiophen-4-ol], in experiment [1], the pIC50 was below 6.00.
In turn, `CS(=O)(=O)c1sc(-c2ccccc2F)c2c1[C@H](O)C(F)(F)C2` [Example 27a, (4S)-5,5-difluoro-1-(2-fluorophenyl)-3-methanesulfonyl-4H,6H-cyclopenta[c]thiophen-4-ol] had a pIC50 in experiment [1] below 6.00. This compound showed a pKd on HIF2a (240-350)-G below 6.00.
Take `CS(=O)(=O)c1sc(-c2cccc(F)c2)c2c1[C@H](O)C(F)(F)CC2` [Example 37a, (4S)-5,5-difluoro-1-(3-fluorophenyl)-3-methanesulfonyl-6,7-dihydro-4H-2-benzothiophen-4-ol]: the pIC50 in experiment [1] and in experiment [2] was below 6.00 in each case. In addition, the pKd on HIF2a (240-350)-G is below 6.00.
With `CS(=O)(=O)c1sc(-c2cncc(F)c2)c2c1[C@H](O)C(F)(F)CC2` [Example 58a, (4S)-5,5-difluoro-1-(5-fluoropyridin-3-yl)-3-methanesulfonyl-4,5,6,7-tetrahydro-2-benzothiophen-4-ol], the pIC50 in experiment [1] is below 6.00.
Still for that read-out and setting: the value for `Cc1cc(-c2sc(S(C)(=O)=O)c3c2CC(F)(F)[C@H]3O)n(C)n1` [Example 49a, (4S)-1-(1,3-dimethyl-1H-pyrazol-5-yl)-5,5-difluoro-3-methanesulfonyl-4H,5H,6H-cyclopenta[c]thiophen-4-ol] was below 6.00.
Take `CS(=O)(=O)c1sc(-c2cccc(F)c2)c2c1[C@H](O)C(F)(F)C2` [Example 28a, (4S)-5,5-difluoro-1-(3-fluorophenyl)-3-methanesulfonyl-4H,6H-cyclopenta[c]thiophen-4-ol]: the pIC50 in experiment [1] is below 6.00. This compound also had a pKd on HIF2a (240-350)-G below 6.00.
Compound `COc1ncc(-c2sc(S(C)(=O)=O)c3c2CCC(F)(F)[C@H]3O)cc1Cl` [Example 65a, (4S)-1-(5-chloro-6-methoxypyridin-3-yl)-5,5-difluoro-3-methanesulfonyl-4,5,6,7-tetrahydro-2-benzothiophen-4-ol] gave a pIC50 in experiment [1] below 6.00.
As for `CS(=O)(=O)c1sc(-c2cncc(C(F)(F)F)c2)c2c1[C@H](O)C(F)(F)CC2` [Example 62a, (4S)-5,5-difluoro-3-methanesulfonyl-1-[5-(trifluoromethyl)pyridin-3-yl]-4,5,6,7-tetrahydro-2-benzothiophen-4-ol], the pIC50 in experiment [1] is 6.00 to 7.30; in experiment [2], below 6.00.
As to `Cc1cncc(-c2sc(S(C)(=O)=O)c3c2CCC(F)(F)[C@H]3O)c1` [Example 57a, (4S)-5,5-difluoro-3-methanesulfonyl-1-(5-methylpyridin-3-yl)-4,5,6,7-tetrahydro-2-benzothiophen-4-ol], the pIC50 in experiment [1] was below 6.00.
